Data taken from PMC10793205, “Differential transmetallation of complexes of the anti-cancer thiosemicarbazone, Dp4e4mT: effects on anti-proliferative efficacy, redox activity, oxy-myoglobin and oxy-hemoglobin oxidation” (Chemical Science, 2023).
“Also recorded” adds a separate entry of the source.

Assays:
H2DCF = test: Redox activity: H2DCF oxidation to DCF (cell-free, L-cysteine/H2O2); format: biochemical; settings: 10 μM, pH 7.4 and pH 5, no added CuCl2
Procedure: Redox activity in cells was examined using an established in vitro method examining 2′,7′-dichlorodihydrofluorescein (H2DCF) oxidation to fluorescent 2′,7′-dichlorofluorescein (DCF) at cytosolic pH (pH 7.4 using HBSS buffer) relative to lysosomal pH (pH 5; acetate buffer; Fig. 5).[25,26,28,42,46] To these buffers containing the complexes, L-cysteine (100 μM) was added as a reducing agent, followed by H2DCF (5 μM). Then, hydrogen peroxide (H2O2; 100 μM) was added to initiate hydroxyl radical generation. Both [Cu(DpC)Cl2] and [Cu(DpC)2] were used as positive controls due to their documented redox activity.[28,42] In contrast, the ligand, DpC, was implemented as a negative control, as it is redox inert.[28,42] As an additional control, the established Cu chelator, tetrathiomolybdate (TM), was utilized to remove Cu from the thiosemicarbazone complexes to indicate its role in their redox activity.[27,28,42] Additionally, UV-vis spectroscopy (300–700 nm) of the same solution for each complex was also performed to understand both the oxidation of H2DCF and the formation of fluorescent DCF upon excitation at 503 nm (Fig. S20A–F and S21A–F ^†). […]
ROS Generation Analysis with H 2DCF-DA
The generation of reactive oxygen species (ROS) was assessed by examining the oxidation of H2DCF.2, 8, 13, 14 Solutions containing CuCl2, TM, DpC, Dp4e4mT, [Fe(DpC)2]+, [Cu(DpC)Cl2], [Cu(DpC)2] and the Dp4e4mT complexes were prepared at a concentration of 10 µM in either HBSS (pH 7.4) or 150 mM acetate buffer (pH 5) to simulate the conditions of the cytosol and lysosome, respectively.2, 8, 14, 15 The H2DCF was prepared by deacetylation of DCFH-DA (Sigma-Aldrich) through alkaline hydrolysis using NaOH. 16
In these prepared solutions, L-cysteine (100 µM) was added as a reducing agent and then H2DCF (5 µM) added. The initiation of hydroxyl radical generation was achieved by the addition of hydrogen peroxide (H2O2; 100 µM). As a comparative benchmark, HBSS or acetate buffer containing L-cysteine, H2DCF, and H2O2, but lacking ligands or metal complexes, was employed as a control. Fluorescence measurements were carried out using a CLARIOstar Plus microplate reader (BMG LABTECH, Australia) with an excitation wavelength of 485 nm and an emission wavelength of 530 nm. 8, 14

[1] = molecular target: T1, oxy-Hb in intact human erythrocytes (Homo sapiens, UniProt P68871+P69905); test: Oxidation of oxy-Hb in intact human erythrocytes; format: cell-based; settings: 10 μM, 3 h/37 °C
T1 construct: Physiologically, oxy-Hb is found in erythrocytes; endogenous in cells; host or cells: intact human erythrocytes from fresh blood of healthy donors
T1 sequence (P69905 2-142 limits assumed): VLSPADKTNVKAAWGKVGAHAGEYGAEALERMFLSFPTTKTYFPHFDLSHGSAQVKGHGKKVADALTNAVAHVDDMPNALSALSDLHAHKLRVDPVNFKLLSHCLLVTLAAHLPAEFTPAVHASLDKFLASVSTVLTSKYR
T1 sequence (P68871 2-147 limits assumed): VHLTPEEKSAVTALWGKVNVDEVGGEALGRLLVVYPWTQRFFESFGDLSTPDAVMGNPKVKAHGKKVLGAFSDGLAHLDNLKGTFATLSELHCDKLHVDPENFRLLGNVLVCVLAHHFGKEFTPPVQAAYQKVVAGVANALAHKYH
Procedure: Fig. 7 (A and B) Investigation of the effects of Dp4e4mT and its Fe(III), Co(III), Ni(II), Cu(II), Zn(II), Ga(III), and Pd(II) complexes versus DFO, Dp44mT, DpC and their Fe(III) complexes (10 μM) on met-Hb generation (% zero time) after an incubation of 1–3 h/20 °C with purified oxy-Hb (40 μM). (C) Investigation of the effects of Dp4e4mT and its Fe(III), Co(III), Ni(II), Cu(II), Zn(II), Ga(III), or Pd(II) complexes relative to the positive controls DFO, Dp44mT, DpC, and their Fe(III) complexes (10 μM) on oxy-Hb oxidation in intact human erythrocytes after a 3 h/37 °C incubation. Results are mean ± SD (3 experiments).
Physiologically, oxy-Hb is found in erythrocytes, and in the current investigation, the ligands and complexes (10 μM) were incubated with intact human erythrocytes for 3 h/37 °C to assess their effects on oxy-Hb oxidation (Fig. 7C). As expected from our previous studies,[28,39] […]
In experiments examining the activity of the agents, all complexes were dissolved in 1,2-propanediol, then diluted to 10 µM in PBS (pH 7.2). […]
1800; Shimadzu, Kyoto, Japan). Concentrations of met-Mb and met-Hb, as well as reduced-Mb and reduced-Hb, were determined at 409 nm and 435 nm, respectively. Concentrations of oxy-Mb and oxy-Hb were determined at 544 nm and 582 nm, respectively. 17 Oxidation of Oxy-Hb in Human Erythrocytes
Oxidation of oxy-Hb in human erythrocytes was performed by standard methods using fresh blood from healthy donors after collection in Vacutainer® collection tubes (BD, Plymouth, UK).8 Erythrocytes centrifuged (480 xg/5 min/4°C) and then washed in HBSS, and subsequently resuspended in this buffer. Incubation of the erythrocytes (15% hematocrit) in the absence or presence of the agents (10 μM) was performed for 3 h/37°C. The erythrocytes were […]

[2] = Cyclic voltammetry (redox potentials); format: physicochemical; settings: 1 mM in MeCN/H2O 7 : 3 (v/v) + 0.1 M Et4NClO4, sweep rate 100 mV s^−1
From the text: The redox potentials of Fe(III)- and Cu(II)-thiosemicarbazone complexes have been extensively studied and are important for understanding intracellular redox activity and ROS generation.[23,27,28,42] Considering this, the electrochemical properties of [Fe(Dp44mT)2]^+, [Fe(DpC)2]^+, [Fe(Dp4e4mT)2]^+, [Co(Dp4e4mT)2]^+, [Ni(Dp4e4mT)2], [Cu(Dp4e4mT)Cl], [Ga(Dp4e4mT)2]^+, and [Pd(Dp4e4mT)Cl] were investigated with cyclic voltammetry in MeCN : H2O (70 : 30 v/v; Fig. 4A and B). This solvent system was implemented to provide sufficient solubility and because it has been used by our laboratories previously to measure potentials of thiosemicarbazone complexes enabling effective comparison.[28,45,57–59]
Fig. 4 Cyclic voltammograms of: (A) [Fe(Dp44mT)2]^+, [Fe(DpC)2]^+, and [Fe(Dp4e4mT)2]^+. (B) [Co(Dp4e4mT)2]^+, [Ni(Dp4e4mT)2], [Cu(Dp4e4mT)Cl], [Ga(Dp4e4mT)2]^+, and [Pd(Dp4e4mT)Cl] (1 mM in MeCN/H2O 7 : 3 (v/v) + 0.1 M Et4NClO4) at a sweep rate of 100 mV s^−1. The voltammograms were recorded using a glassy carbon working electrode versus a […] (NHE). […]
Cyclic voltammograms were acquired for the Fe(III), Co(III), Ni(II), Cu(II), Ga(III), and Pd(II) complexes of Dp4e4mT utilizing a BAS100B/W potentiostat, equipped with an aqueous Ag/AgCl reference electrode, a glassy carbon working electrode, and a Pt wire auxiliary […]
electrode. […]

oxy-Mb = molecular target: T2, oxy-Mb (Homo sapiens, UniProt P02144); test: Oxidation of purified oxy-Mb to met-Mb (UV-vis); format: biochemical; settings: 10 μM agent, oxy-Mb 40 μM, 3 h incubation, 20 °C
T2 sequence (P02144 1-154): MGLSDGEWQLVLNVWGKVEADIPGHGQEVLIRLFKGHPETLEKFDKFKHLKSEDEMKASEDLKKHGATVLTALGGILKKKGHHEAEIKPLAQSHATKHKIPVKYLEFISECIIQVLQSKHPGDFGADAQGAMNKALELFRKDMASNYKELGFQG
From the text: As such, it was important to examine the effect of the Dp4e4mT complexes on oxy-Hb and oxy-Mb oxidation (Fig. 6 and 7). Comparisons were made to three controls, namely DFO, Dp44mT, and DpC, as well as their Fe(III) complexes. […] In contrast, the Fe(III) complexes of Dp44mT and DpC were positive controls, as they induce oxidation of oxy-Mb.[28,39,42]
Fig. 6 (A and B) Investigation of the effects of Dp4e4mT and its Fe(III), Co(III), Ni(II), Cu(II), Zn(II), Ga(III), and Pd(II) complexes versus the positive controls DFO, Dp44mT, DpC and their Fe(III) complexes (10 μM) on met-Mb generation (% zero time) after an incubation of 1–3 h/20 °C with purified oxy-Mb (40 μM). Results are mean ± SD (3 experiments).
Spectroscopic Examination of Met-Mb and Met-Hb Formation from Oxy-Mb and Oxy- […]
Oxy-Mb and oxy-Hb solutions were prepared following established protocols.8, 17 In brief, solutions of reduced Mb and Hb in PBS (pH 7.2) were prepared by adding 1.2 mL of Na2S2O4 (12 mM) to 38 mL of met-Mb and met-Hb solution (40 μM). 17 Subsequently, oxy-Mb and oxy-Hb were generated by gently passing 150 mL of oxygen (from an air-filled syringe) through the solution containing reduced Mb and Hb, effectively eliminating any residual Na2S2O4. Following this, the oxy-Mb and oxy-Hb solutions were passed through a PD-10 column prepacked with 8.3 mL of Sephadex G-25 and equilibrated with PBS (pH 7.2). 17 In experiments examining the activity of the agents, all complexes were dissolved in 1,2-propanediol, then diluted to 10 µM in PBS (pH 7.2). The experiments were conducted over incubations of 0 to 3 h with the agents. UV-Vis spectra covering the range of 300 to 700 nm were recorded at a temperature of 20°C using a Shimadzu UV−Vis spectrophotometer (UV-1800; Shimadzu, Kyoto, Japan). Concentrations of met-Mb and met-Hb, as well as reduced-Mb and reduced-Hb, were determined at 409 nm and 435 nm, respectively. Concentrations of oxy-Mb and oxy-Hb were determined at 544 nm and 582 nm, respectively. 17

| Redox potential (mV vs. NHE) [2] | oxy-Mb oxidation (met-Mb generation) (oxy-Mb) | Compound | DCF fluorescence (H2DCF oxidation) of agent alone (H2DCF) | oxy-Hb oxidation in erythrocytes versus the control (in words) [1] | further results |
| --- | --- | --- | --- | --- | --- |
| – | – | [Cl][Cu][Cl] [CuCl2, reference compound] | significantly (p < 0.0001–0.01) increased DCF fluorescence | – | – |
| – | – | CC(=O)N([O-])CCCCCNC(=O)CCC(=O)N([O-])CCCCCNC(=O)CCC(=O)N([O-])CCCCCN.[Fe+3] [DFO Fe(III) complex, reference compound] | – | did not induce any significant (p > 0.05) increase in oxy-Hb oxidation | – |
| – | – | [SH-].[SH-].[S]=[Mo]=[S] [TM, tetrathiomolybdate, reference compound] | did not significantly (p > 0.05) increase DCF fluorescence | – | – |
| – | – | CN(C(=S)NN=C(c1ccccn1)c1ccccn1)C1CCCCC1.[Cl-].[Cl-].[Cu+2] [[Cu(DpC)Cl2], reference compound] | significantly (p < 0.0001–0.01) increased DCF fluorescence; also recorded: greatest efficacy at increasing DCF fluorescence | – | – |
| +166 mV vs. NHE | 222 % of the control | CN(C)C([S-])=NN=C(c1ccccn1)c1ccccn1.CN(C)C([S-])=NN=C(c1ccccn1)c1ccccn1.[Fe+3] [[Fe(Dp44mT)2]^+, reference compound] | – | – | oxy-Hb oxidation to met-Hb in erythrocytes ([1]; control 0.5%): 34.4 % of the total |
| +149 mV vs. NHE | 161 % of the control | CN(C([S-])=NN=C(c1ccccn1)c1ccccn1)C1CCCCC1.CN(C([S-])=NN=C(c1ccccn1)c1ccccn1)C1CCCCC1.[Fe+3] [[Fe(DpC)2]^+, reference compound] | – | did not induce any significant (p > 0.05) increase in oxy-Hb oxidation | – |
